The values below come from US4766116A, “Diaryl butyric acid derivative and pharmaceutical use thereof” (Suntory Limited, priority 1984, dated 1988).

Experiment [1] relates to lipid peroxides in the blood serum. In words: Antilipid Peroxidation Activity (B), lipid peroxides in blood serum of alloxan-injected mice. In kind it is in vivo, Male ddY mice. The settings on record: at a dose of 10 mg/kg, ip, 24 hours after alloxan 85 mg/kg. The procedure: (B) Male ddY mice having a body weight of 24 to 27 g were used (i.e., 5 to 9 mice in one group). After 16 to 17 hours nestia, 85 mg/kg of alloxan was rapidly injected into the tail vein of the mice. After injecting the alloxan, the mice were subjected to free feeding and free water intaking and, 24 hours later, the sample compound was intraperitoneally injected into the mice. After an additional 24 hours, anesthesia was applied to the mice with ether and the blood of alvine aorta and cava was sampled. The amounts of the lipid peroxides in the blood serum were quantitatively measured according to a Yagi's method (i.e., K. Yagi, Biochem. Med., 15, 212, 1976).
The results were compared with that of a control group to which only a physiological saline was injected.

Experiment [2] has as its system Male ddY mice. As to the kind of experiment: Scopolamine Amnesia Activity (step-through passive avoidance learning). The settings on record: Mus musculus; ip immediately after first session; scopolamine 0.5 mg/kg hypodermically; retention test 24 hours later; read-out: Scopolamine Amnesia EDmin (Minimum effective dose). In kind it is in vivo. From the text:
Ten male ddY mice having a body weight of 22 to 30 g were used as one group. A slit was located between a light room and a dark room. In the dark room, an arrangement was made whereby an electric shock was given to the feet by an electric current. Thus, the behavior of the mice in relation to step-through to the dark room was studied. The mice were amnesically treated with an administration of scopolamine with or without the injection of the sample compound 1 or 7 and the time taken to avoid step-through by the mice to the dark room was determined by the so-called step-through passive avoidance learning method. The electric current used was 0.6 mA. The scopolamine was hypodermically injected in an amount of 0.5 mg/kg at 20 minutes prior to the first session and the sample compound was intraperitoneally injected immediately after the first session. The retention test (i.e., the second session) was carried out 24 hours later.

The next experiment concerns Male mice. In words: Hemicholinium No. 3 (HC-3) Induced Anoxia Activity (survival time). In kind it is in vivo. Conditions: Mus musculus; ip, 15 minutes before 5 mg/kg hemicholinium No. 3 into tail vein; read-out: HC-3 Induced Anoxia EDmin (Minimum effective dose). The procedure: Male mice having a body weight of 22 to 30 g were used (i.e., 7 to 10 mice in one group). The sample compound prepared in the Synthesis Example 1 or 7 was intraperitoneally injected into the mice and, 15 minutes later, 5 mg/kg of hemicholinium No. 3 was injected into the tail vein of the mice. The time from the injection of hemicholinium No. 3 to the termination of breathing by the mice was determined to be the survival time. The results were compared with that of a control group to which only a physiological saline was injected.

Experiment [3] relates to Male ddY mice. As to the kind of experiment: Normobaric Hypoxia Activity (survival time in 96% N2 and 4% O2). The settings on record: Mus musculus, ip, 30 minutes before, read-out: Normobaric Hypoxia EDmin (Minimum effective dose). The format is in vivo. The procedure:
Male ddY mice having a body weight of 22 to 30 g were used (i.e., 7 to 10 mice in one group). The sample compound prepared in the Synthesis Example 1 or 7 was intraperitoneally injected into the mice and, 30 minutes later, the mice were placed in a desiccator having a volume of about 1 liter and filled with a gas mixture of 96% N2 and 4% O2. The survival time up to the termination of breathing by the mice was determined. During the test, the N2 --O2 gas mixture was continuously supplied at a rate of 3 l/min. When the survival time was more than 15 minutes, the survival time was assumed to be 15 minutes. The results were compared with a control group, to which only a physiological saline was injected.

Another experiment deals with rat brain homogenate. As to the kind of experiment: Antilipid Peroxidation Activity (A), rat brain homogenate, TBA reaction. The settings on record: at 10^-4 M, 37° C., 30 minutes. In kind it is biochemical, Male Wister rats. The procedure: (A) Male Wister rats having a body weight of 350 to 380 g were used. A rat was decapitated and the whole brain other than the cerebellum was homogenized in 10 times volume of ice cooled 50 mM buffered saline (PBS) having a pH of 7.4. The homogenized mixture was then centrifugally separated and the resultant supernatant frozen at a temperature of -30° C. The frozen specimen was melted in flowing water and was then diluted with 3 times volume PBS to prepare the diluted homogenate.
A 10 μl of a solution of the sample compound prepared in the Synthesis Example 1 or 7 was added to 1 ml of the diluted homogenate obtained above and the mixture was incubated at a temperature of 37° C. for 30 minutes. […]
As is the case of the test compound solution, 10 μl of the standard solution of tetramethoxypropane (TMP) was prepared and was added to the reaction mixture in amounts of 0 to 10 nmole/tube. […] Thereafter, the resultant layers were stabilized for 10 minutes at 2,000 rpm and the absorbance of the organic layer at 532 nm or the fluorescence intensity of the organic layer at 553 nm (excited at 515 nm) were determined. The lipid peroxide content was determined and represented a nmole number of malon dialdehyde (MDA) per mg of protein. The protein was determined by a Lawry method (i.e., Lawry et al., J. Biol. Chem., 193, 265 (1951)).

Experiment [4] relates to Male ddY mice. In words: Hypobaric Hypoxia Activity (survival time at 180 mmHg). In kind it is in vivo. Conditions: Mus musculus; ip, 30 minutes before evacuation to 180 mmHg; vs physiological saline; read-out: Hypobaric Hypoxia EDmin (Minimum effective dose). The procedure:
Male ddY mice having a body weight of 22 to 30 g were used (i.e., 7 to 10 mice in one group). The mice were […] sample compound prepared in the Synthesis Example 1 or 7 was intraperitoneally injected into the mice. The desiccator was evacuated 30 minutes after the injection and the time from the start of the evacuation to the termination of breathing by the mice was determined to be the survival time. If a mouse was still alive 15 minutes after exposure to the hypoxia, the survival time was assumed to be 15 minutes.

Experiment [5] concerns Male ddY mice. As to the kind of experiment: Global Ischemia Activity (gasping time after decapitation). The format is in vivo. Conditions: Mus musculus; ip, 30 minutes before decapitation; vs saline control; read-out: Global Ischemia EDmin (Minimum effective dose). The procedure:
Male ddY mice having a body weight of 22 to 30 g were used (i.e., 6 mice in one group). The sample compound prepared in the Synthesis Example 1 or 7 was intraperitoneally injected into the mice and the mice were decapitated 30 minutes after the injection. After decapitation, the gasping times were determined. The results were compared with a control group to which only the saline was injected.

As for `COc1ccc(O)c(C(CCC(=O)N2CCN(C)CC2)c2ccccc2)c1` (stereo not shown) [Example 1, 4-(2-hyddroxy-5-methoxy)phenyl-4-phenyl-1-(4-methyl)piperazinyl-1-oxobutane], the “inhibition of the formation of the lipid peroxides” value in experiment [1] is on record as “caused inhibition”. Further, the minimal effective dose with Male ddY mice [2] was found to be 50 mg/kg; with Male mice it was 50 mg/kg; with Male ddY mice [3] it was 50 mg/kg; in the experiment on Male ddY mice [4] it was 50 mg/kg; in the experiment with Male ddY mice [5] it was 25 mg/kg. Also, the “Antilipid Peroxidation, % inhibition of the rat brain homogenate” value in the experiment with rat brain homogenate is given as 95.4%.
